From US9661848B2, “Substituted 4-cyan-3-(pyridyl)-4-phenylbutanoates, method for the production thereof and uses as herbicides and plant growth regulators” (BAYER CROPSCIENCE AG, priority 2012, dated 2017)

Legend:
Alopecurus myosuroides = assay: Herbicidal post-emergence action; format: in vivo; conditions: post-emergence method; 0.32 kg of active substance per hectare
Experimental: (§1) Seeds of monocotyledonous and dicotyledonous weeds and crop plants were placed in sandy loam in wood-fibre pots, covered with soil and cultivated in a greenhouse under good growth conditions. 2 to 3 weeks after sowing, the test plants were treated at the one-leaf stage, where the compounds (I) according to the invention, formulated in the form of wettable powders (WP), were applied by spraying as aqueous suspension or emulsion at a water application rate of 600 l/ha (converted) with the addition of 0.2% of wetting agent to the green parts of the plants. After the test plants had been kept in the greenhouse under optimum growth conditions for about 3 weeks, the activity of the preparations was rated visually in comparison to untreated controls in per cent (%). For example, 100% activity=the plants have died, 50% herbicidal activity or damage=the plants have been reduced by 50% or the plant mass has been reduced by 50%, 0% activity=like control plants.

Avena fatua = assay: Herbicidal post-emergence action; format: in vivo; conditions: post-emergence method; 0.32 kg of active substance per hectare
Experimental: as §1

Q: For `COC(=O)C[C@@H](c1cncc(F)c1)[C@H](C#N)c1cccc(F)c1` [erythro-2-Ibb732], which “activity against Alopecurus myosuroides” value (Alopecurus myosuroides) is on record?
A: Its value is 90-100%.

Q: And the “activity against Avena fatua” value (Avena fatua)?
A: The value was 90-100%.
